Measured values published in article PMC7823652 (Viruses, 2020).
Where two headings read alike, the source gives them in different places.

Assays:
[1] = system: ZIKV; assay: Antiviral dose-response in ZIKV-infected U87 cells (infected cells, viral titer); type: cell-based, Zika virus (strain H/PF/2013); settings: for EC50: U87, ZIKV MOI 1, 48 h
[2] = system: ZIKV; assay: Time-of-addition assay in ZIKV-infected U87 cells; type: cell-based, Zika virus (strain H/PF/2013)
[3] = in vitro; settings: human
[4] = Screen cytotoxicity by nuclei count in ZIKV-infected U87 cells; type: cell-based; settings: human; for viability at 48 h, 10 µM / viability at 10 µM: ZIKV-infected U87 cells; for viability at 48 h, 10 µM: ZIKV MOI 10, compound 10 µM, nuclei count relative to DMSO; for viability at 10 µM: screen
[5] = system: HAZV; assay: microbe, parasite or virus in culture; type: cell-based, Hazara virus (isolate JC280); settings: for inhibition at 10 µM: Hazara virus, SW13, 24 h; for Infected Cells (SW13, HAZV) / Viral Titer (HAZV): screen, SW13 cells
[6] = system: ZIKV; assay: Time course of ZIKV replication in U87 cells (vRNA, infected cells, titer)
[7] = system: ZIKV; assay: Antiviral dose-response in ZIKV-infected Vero cells; type: cell-based, Zika virus (strain H/PF/2013); settings: Zika virus, 48 h
[8] = system: ZIKV; assay: Image-based phenotypic antiviral screen in ZIKV-infected U87 cells; type: cell-based, Zika virus (strain H/PF/2013); settings: for Infected Cells (U87, ZIKV) / Viral Titer (ZIKV): screen, U87 cells; for inhibition at 10 µM: Zika virus, U-87 MG
[9] = system: Vero cells; assay: Cell viability by nuclei count in ZIKV-infected Vero cells; type: cell-based, African Green Monkey
[10] = system: U87 cells; assay: Cell viability by nuclei count in ZIKV-infected U87 cells; type: cell-based, Human
[11] = Cell viability assay (Resazurin), uninfected U87 cells; type: cell-based, Human; settings: human, read-out: Viability CC50 [µM] (95%-CI); for CC50 at 24 h: uninfected U87, 24 h; for CC50 at 48 h: uninfected U87, 48 h; for CC50 at 72 h: uninfected U87, 72 h
[12] = system: human brain organoids; assay: Viability and structure of ZIKV-infected human cerebral organoids; settings: ZIKV 2 × 10^4 particles/organoid, 5 μM, 7 dpi and 10 dpi
[13] = target: hOGG1 (Homo sapiens, UniProt O15527); assay: hOGG1 IC50 (listed in supplementary data, method not described); type: biochemical
[14] = system: ZIKV; assay: ZIKV infection (NS1 intensity) and viral titer in human cerebral organoids; type: cell-based, Zika virus (strain H/PF/2013); settings: ZIKV 2 × 10^4 particles/organoid, 5 μM, all timepoints, relative to DMSO
[15] = system: U87 cells; assay: Cell viability assay (Resazurin), uninfected U87 cells; type: cell-based, Human; settings: for CC50: read-out: Viability CC50 [µM] (95%-CI)
[16] = ZIKV MOI 10, 100 µM Ribavirin (positive control), 48 h
[17] = read-out: Inhibition of HAZV titer (%)
[18] = read-out: Inhibition of primary HAZV infection (%)
[19] = U87, ZIKV MOI 1, from 24 hpi and onwards
[20] = U87, ZIKV MOI 10, 100 µM Ribavirin (positive control), 48 h
[21] = Zika virus, U-87 MG, 48 h, read-out: Antiviral on primary infection IC50 [µM], ZIKV, U87, MOI 10, 48 h
[22] = Zika virus, U-87 MG, 48 h, read-out: Antiviral on titer (µM) IC50 [µM], ZIKV, U87, MOI 10, 48 h
[23] = Zika virus, U-87 MG, ZIKV NS1 staining, read-out: EC50 [μM] Infected cells
[24] = Zika virus, U-87 MG, end-point dilution assay, read-out: EC50 [μM] Viral titer
[25] = U87, ZIKV MOI 10, compound 10 µM, 48 h, relative to DMSO
[26] = ZIKV MOI 10, compound 10 µM, 48 h, relative to DMSO
[27] = U87, ZIKV MOI 10, compound 10 µM, 48 h, relative to DMSO, read-out: Inhibition of ZIKV titer (%)
[28] = U87, ZIKV MOI 10, compound 10 µM, 48 h, relative to DMSO, read-out: Inhibition of primary ZIKV infection (%)
[29] = Homo sapiens, U-87 MG, 48 h, read-out: Viability (nuclei count) EC50 [µM]

hOGG1, sequence (O15527 whole entry): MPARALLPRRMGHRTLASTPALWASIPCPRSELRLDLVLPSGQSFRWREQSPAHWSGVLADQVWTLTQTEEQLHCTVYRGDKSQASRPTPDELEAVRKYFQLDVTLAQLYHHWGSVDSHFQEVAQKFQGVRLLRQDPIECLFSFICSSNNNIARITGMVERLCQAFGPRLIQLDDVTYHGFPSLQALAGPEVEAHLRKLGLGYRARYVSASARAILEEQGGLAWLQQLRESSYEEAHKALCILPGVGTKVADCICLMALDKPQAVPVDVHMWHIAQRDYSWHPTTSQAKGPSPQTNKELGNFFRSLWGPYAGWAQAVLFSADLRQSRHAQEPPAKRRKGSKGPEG

NC(=O)c1ncn([C@@H]2O[C@H](CO)[C@@H](O)[C@H]2O)n1 [Ribavirin, reference compound] showed an IC50 ([1]; Zika virus, U-87 MG, 48 h, ZIKV, U87, MOI 1, 48 h, read-out: Antiviral on primary infection IC50) of 60.7 µM, an IC50 ([1]; Zika virus, U-87 MG, 48 h, ZIKV, U87, MOI 1, 48 h, read-out: Antiviral on titer (µM) IC50) of 52.8 µM and an IC50 ([1]; Zika virus, U-87 MG, 48 h, ZIKV, U87, MOI 10, 48 h, read-out: Antiviral on primary infection IC50) of 59.2 µM. The IC50 ([1]; Zika virus, U-87 MG, 48 h, ZIKV, U87, MOI 10, 48 h, read-out: Antiviral on titer (µM) IC50) was 31.1 µM, the “reduction of ZIKV titers, post-inoculation step” value ([2]; U87, ZIKV MOI 10, 100 μM Ribavirin for 24 h after inoculation) was 80% and the “effect on viral titer, later steps (budding)” value ([2]; U87, ZIKV MOI 10, 100 μM Ribavirin from 22 h for 2 h) was “no effect”. For the same molecule, the “effect on viral titer, entry steps” value ([2]; U87, ZIKV MOI 10, 100 μM Ribavirin, pre-treatment and during inoculation) was “no effect”, the viability at 10 µM [3] was 99% and the viability at 24 h, 10 µM [3] was 99%. For the same molecule, the viability at 48 h, 100 µM [4, 16] was 91%, the inhibition at 10 µM [5, 17] was 98% and the inhibition at 10 µM [5, 18] was 47%. For the same molecule, the “Infected Cells (SW13, HAZV)” value [5] was 53%, the “Viral Titer (HAZV)” value [5] was 2% and the “intracellular vRNA levels” value ([6]; U87, ZIKV MOI 1, all timepoints (24, 48, 72 h)) was “reduced”. The ZIKV titers [6, 19] was “reduced”, the “extracellular vRNA” value [6, 19] was “reduced” and the IC50 ([7]; MOI 1, 48 h, read-out: Antiviral on primary infection IC50) was 52.6 µM. For the same molecule, the IC50 ([7]; MOI 1, 48 h, read-out: Antiviral on titer (µM) IC50) was 21 µM, the IC50 ([7]; MOI 10, 48 h, read-out: Antiviral on primary infection IC50) was 65.1 µM and the IC50 ([7]; MOI 10, 48 h, read-out: Antiviral on titer (µM) IC50) was 41 µM. The “Inhibition of ZIKV titer (%)” value [8, 20] was 63%, the “Inhibition of primary ZIKV infection (%)” value [8, 20] was 60% and the “Viral Titer (ZIKV) (%)” value [8, 20] was 37%. The “Infected Cells (U87, ZIKV) (%)” value [8, 16] was 40%, the “Infected Cells (U87, ZIKV)” value [8] was 40% and the “Viral Titer (ZIKV)” value [8] was 37%. The EC50 ([9]; Chlorocebus sabaeus, MOI 10, 48 h) was > 200 µM, the EC50 ([9]; MOI 1, 48 h) was > 200 µM and the EC50 ([10]; Homo sapiens, U-87 MG, ZIKV, U87, MOI 10, 48 h, read-out: Viability (nuclei count) EC50) was > 200 µM. The EC50 ([10]; ZIKV, U87, MOI 1, 48 h, read-out: Viability (nuclei count) EC50) was > 200 µM, the CC50 at 24 h ([11]; uninfected U87 cells) was > 300 µM and the CC50 at 48 h ([11]; uninfected U87 cells) was > 300 µM. For the same molecule, the CC50 at 72 h ([11]; uninfected U87 cells) was > 300 µM.

With O=C(Nc1ccc(I)cc1)N1CCC(n2c(=O)[nH]c3cc(Cl)ccc32)CC1 [TH3289] the IC50 [1, 21] was 2.8 µM, the IC50 [1, 22] was 2.5 µM and the EC50 [1, 23] was 2.8 µM. For the same molecule, the EC50 [1, 24] was 2.5 µM, the viability at 24 h, 10 µM [3] was 77% and the viability at 48 h, 10 µM ([4]; 48 h) was 92%. The viability at 10 µM [4] was 92%, the inhibition at 10 µM [5, 17] was 95% and the inhibition at 10 µM [5, 18] was 58%. The “Infected Cells (SW13, HAZV)” value [5] was 42%, the “Viral Titer (HAZV)” value [5] was 5% and the “Viral Titer (ZIKV) (%)” value [8, 25] was 4%. The “Infected Cells (U87, ZIKV) (%)” value [8, 26] was 59%, the inhibition at 10 µM [8, 27] was 96% and the inhibition at 10 µM [8, 28] was 41%. The “Infected Cells (U87, ZIKV)” value [8] was 59%, the “Viral Titer (ZIKV)” value [8] was 4% and the EC50 [10, 29] was > 50 µM. For the same molecule, the CC50 at 24 h [11] was > 50 µM, the CC50 at 48 h [11] was > 50 µM and the CC50 at 72 h [11] was 34 µM.

Work on O=C(Nc1ccc(I)cc1)N1CCC(n2c(=O)[nH]c3cc(C(F)(F)F)ccc32)CC1 [TH5264, N-(4-iodophenyl)-4-[2-oxo-5-(trifluoromethyl)-2,3-dihydro-1H-1,3-benzodiazol-1-yl]piperidine-1-carboxamide] yielded an IC50 [1, 21] of 2.7 µM, an IC50 [1, 22] of 3.2 µM and an EC50 [1, 23] of 2.7 µM. The EC50 [1, 24] was 3.2 µM, the viability at 24 h, 10 µM [3] was 94% and the viability at 48 h, 10 µM ([4]; 48 h) was 86%. The viability at 10 µM [4] was 86%, the “Viral Titer (ZIKV) (%)” value [8, 25] was 2% and the “Infected Cells (U87, ZIKV) (%)” value [8, 26] was 46%. The inhibition at 10 µM [8, 27] was 98%, the inhibition at 10 µM [8, 28] was 54% and the “Infected Cells (U87, ZIKV)” value [8] was 46%. The “Viral Titer (ZIKV)” value [8] was 2%, the EC50 [10, 29] was 26.7 µM and the CC50 at 24 h [11] was > 50 µM. For the same molecule, the CC50 at 48 h [11] was > 50 µM and the CC50 at 72 h [11] was 31.5 µM.

Work on O=C(Nc1ccc(I)cc1)N1CCC(n2c(=O)[nH]c3c(Br)cccc32)CC1 [TH5487] yielded an EC50 ([1]; ZIKV NS1 staining, read-out: EC50 [μM] Infected cells) of 2.8 µM, an EC50 ([1]; end-point dilution assay, read-out: EC50 [μM] Viral titer) of 2 µM and an IC50 ([1]; ZIKV, U87, MOI 10, 48 h, read-out: Antiviral on primary infection IC50) of 2.8 µM. The IC50 ([1]; ZIKV, U87, MOI 10, 48 h, read-out: Antiviral on titer (µM) IC50) was 2 µM, the “phenotypic rescue (retained structure of organoids)” value [12] was “phenotypic rescue” and the IC50 [13] was 0.142 µM. For the same molecule, the EC50 ([10]; ZIKV, U87, MOI 10, 48 h, read-out: Viability (nuclei count) EC50) was 35.2 µM, the “reduction of ZIKV progeny particles produced by the organoids” value [14] was 60–70% and the IC50 ([15]; U87, Resazurin, all measured time points (24, 48 or 72 h), read-out: IC50 (toxicity profile, cellular viability)) was > 50 µM. The CC50 ([15]; uninfected U87, 24 h) was > 50 µM, the CC50 ([15]; uninfected U87, 48 h) was > 50 µM and the CC50 ([15]; uninfected U87, 72 h) was > 50 µM.
